# According to US10493061B2, “Compositions and methods comprising 2-(acylamino)imidazoles” (priority 2014, dated 2019):
# How the values were obtained:
# [1] = Isothermal titration calorimetry of the small molecule with zinc or copper; assay type: binding; conditions: ITC, data not shown
# [2] = system: pleural effusion (PE1100025) primary metastatic breast cancer cells; test: 12-point dose response, ATP cell viability assay; assay type: cell-based, human; conditions: 12-point dose response
# [3] = system: hTERT-HMEC normal mammary epithelial cells; test: Dose response, ATP cell viability assay; assay type: cell-based, human
# [4] = system: MCF-10A cells; test: Total cellular Zn^2+ by ICP-AES; assay type: cell-based, human; conditions: 30 μM ZNA with 30 μM ZnSO4, three hours; detection limit 1.00 μg/L
# Procedure: (§1) Inductively coupled plasma-atomic emission spectroscopy (ICP-AES) analysis: Cells were cultured to 80% confluence in 10-cm plates and the growth media was then replaced with low serum (2% FBS) drug-containing media. After three hours of treatment, the media was discarded and the cells washed with 1×PBS. To each 10-cm plate, 1 mL of nitric acid (TraceSELECT Ultra for trace analysis, Sigma) was added directly to the plate. The nitric acid mixture was submitted for inductively coupled plasma-atomic emission spectroscopy (ICP-AES) analysis following methods established by the Environmental Protection Agency. Martin T D, Brockhoff C A, Creed J T. Method 200.7 Determination of Metals and Trace Elements in Water and Wastes by Inductively Coupled Plasma-Atomic Emission Spectrometry. Environmental Monitoring Systems Laboratory, US Environmental Protection Agency 1994. The experiment was performed in triplicate for each cell line and a fourth plate of cells was used to measure total protein (BCA assay, Thermo Fisher, Waltham, Mass., USA). The ICP-AES data were then normalized to total protein for each cell line used.
# (§2) To further validate the combinatorial effect of ZNA and Zn^2+, inductively coupled plasma-atomic emission spectroscopy (ICP-AES) was employed to quantify absolute levels of cellular Zn^2+ following treatment. Four cell lines were treated with either 30 μM ZNA alone or 30 μM ZNA in conjunction with 30 μM ZnSO4 for three hours before harvesting. The samples were then analyzed by ICP-AES and the resulting data normalized to total protein (FIG. 8). […] The values obtained from the ICP-AES experiment correlate with the trends observed following FluoZin-3 measurements of Zn^2+, confirming the specificity of the fluorophore for Zn^2+ over other ions.
# [5] = system: MCF-7 cells; test: Total cellular Zn^2+ by ICP-AES; assay type: cell-based, human; conditions: 30 μM ZNA with 30 μM ZnSO4, three hours
# Procedure: as §1, §2
# [6] = system: MDA-MB-231 cells; test: Total cellular Zn^2+ by ICP-AES; assay type: cell-based, human; conditions: 30 μM ZNA with 30 μM ZnSO4, three hours
# Procedure: as §1, §2
# [7] = system: T47D cells; test: Total cellular Zn^2+ by ICP-AES; assay type: cell-based, human; conditions: 30 μM ZNA with 30 μM ZnSO4, three hours
# Procedure: as §1, §2
# [8] = system: MCF-10A cells; test: Cellular proliferation, EdU incorporation assay; assay type: cell-based, human; conditions: ZNA/ZnSO4, 6 hours
# [9] = in vivo; design: species or system Sprague-Dawley rats; conditions: rat
# Procedure: ZNA has promising pkpd parameters. An initial pharmacokinetic (PK) analysis on ZNA was performed at 1 mg/kg IV, 5 mg/kg PO. ZNA was dosed to female Sprague-Dawley rats at either 1 mg/kg intravenously or at 5 mg/kg orally. Plasma was collected with K2EDTA and stored at −80° C. until analysis. Quantification of ZNA was performed by protein precipitation followed by ultra-high performance liquid chromatography (UHPLC) interfaced to an electrospray ionization quadrapole time-of-flight mass spectrometer (ESI-QTOF). Plasma concentrations were determined from a calibration curve using […]. The values determined were fit with Phoenix WinNonlin and pharmacokinetic values reported.
# The plasma concentrations for ZNA were very low, and most samples fell below the lower limit of quantification for the assay (10.0 ng/mL). This limited the data available for fitting in WinNonlin. To increase the amount of data for fitting, values from below the curve were extrapolated to approximately 40% of the LLOQ and were used for PK fitting. The percent of the area extrapolated in the PO PK animals ranged from 34-70% which was considered quite high. […] The oral bioavailability determined was approximately 6%. This value is considered a rough estimate based upon the area extrapolated and the unusually high clearance determined. […] Possible explanations for the high clearance are binding of compound to red blood cells, extremely rapid clearance that requires collection of earlier time points to establish a more accurate CO, and extrahepatic elimination.
# [10] = system: cancer cells (malignant cell types tested); test: Clonogenic cell survival assay; conditions: 24 hours ZNA, then three weeks of growth, crystal violet
# Procedure: (§3) Clonogenic cell survival assays were conducted as described in Franken NAP, Rodermond H M, Stap J, Haveman J, van Bree C.
# (§4) Further experiments were also conducted to assess the effects of short-term ZNA treatment on long-term cell survival and proliferation. Cells were treated for 24 hours with ZNA then cultured in the absence of the small molecule; following three weeks of growth, colonies were stained with crystal violet and quantified (FIG. 1D).
# [11] = system: untransformed MCF-10A cells; test: Clonogenic cell survival assay; conditions: 24 hours ZNA, then three weeks of growth, crystal violet
# Procedure: as §3, §4
# [12] = system: metal trafficking genes (MT1F, MT1X, MT2A, SLC30A1, SLC30A2) in MCF-7 cells; test: Transcriptome sequencing (RNA-seq); conditions: 30 μM ZNA, 3 hours, sustained at 12 hours
# [13] = system: MCF-10A normal mammary epithelial cell line; test: Cell viability (ATP quantification) with exogenously added transition metals
# Procedure: Three breast cancer cell lines (MCF-7, T47D, and MDA-MB-231) and a normal mammary epithelial cell line (MCF-10A) were treated with 30 μM ZNA in conjunction with 30 M CuSO4, ZnSO4, Fe(III)Cl3, Fe(II)SO4, NiSO4, MnCl2, or CoCl2 for 48 hours; following the completion of treatment, cell viability was measured using an ATP quantification assay (FIG. 2A).
smiles,measurement,setting,value
"COc1ccc(-c2c(Cc3ccccc3)[nH]/c(=N\C(=O)c3ccccc3F)n2C)cc1 [ZNA, (E)-N-(4-benzyl-5-(4-methoxyphenyl)-1-methyl-1H-imidazol-2(3H)-ylidene)-2-fluorobenzamide]",direct interaction with zinc or copper,[1],no evidence to suggest direct binding
same,cell viability,[2],effective at low micromolar concentrations
same,cell viability,[3],largely unaffected
same,concentration of Zn^2+,[4],not detectable
same,concentration of Zn^2+,[5],1.35 ng Zn^2+ per microgram of protein
same,concentration of Zn^2+,[6],0.82 ng Zn^2+ per microgram of protein
same,concentration of Zn^2+,[7],0.52 ng Zn^2+ per microgram of protein
same,proliferation (EdU),[8],somewhat affected
same,bioavailability,"[9]; female, Sprague-Dawley",~6%
same,half-life,"[9]; female, Sprague-Dawley",1.9 h
same,clearance relative to hepatic blood flow,"[9]; female, Sprague-Dawley, iv",235%
same,AUC(0-inf),"[9]; female, Sprague-Dawley, iv, 1 mg/kg, AUCINF_obs",129 ng·h/mL
same,AUC,"[9]; female, Sprague-Dawley, iv, 1 mg/kg, AUCall",119 ng·h/mL
same,MRT inf,"[9]; female, Sprague-Dawley, iv, 1 mg/kg, MRTINF_obs",2.1 h
same,percent of the area extrapolated,"[9]; female, Sprague-Dawley, po",34-70%
same,Cmax,"[9]; female, Sprague-Dawley, po, 5 mg/kg, Cmax",11.5 ng/mL
same,volume of distribution,[9]; iv,very high volume of distribution
same,long-term proliferative potential (colonies),[10],significantly affected long-term proliferative potential
same,long-term proliferative potential (colonies),[11],greatly attenuated
same,"metallothionein gene expression (MT1F, MT1X, MT2A)",[12],increased metallothionein gene expression
same,cell viability,"[13]; 30 μM ZNA with CuSO4, 48 hours",significant reduction in cell viability
same,cell viability,"[13]; 30 μM ZNA with ZnSO4, 48 hours",only a partial reduction in cell number
